Reference: PMC10755729, “A Multiplexing Activity-Based Protein-Profiling Platform for Dissection of a Native Bacterial Xyloglucan-Degrading System” (ACS Central Science, 2023)

Key:
CjCel5B = molecular target: T1, CjCel5B (Cellvibrio japonicus, UniProt B3PCS3); test: fluorogenic hydrolysis kinetics; assay type: biochemical; conditions: 4MU release
T1 construct: gene cel5B; recombinant, produced in E. coli; native protein has N-terminal catalytic domain, serine-rich linker and C-terminal domain; borders of construct only in supplement
T1 sequence (B3PCS3 38-570): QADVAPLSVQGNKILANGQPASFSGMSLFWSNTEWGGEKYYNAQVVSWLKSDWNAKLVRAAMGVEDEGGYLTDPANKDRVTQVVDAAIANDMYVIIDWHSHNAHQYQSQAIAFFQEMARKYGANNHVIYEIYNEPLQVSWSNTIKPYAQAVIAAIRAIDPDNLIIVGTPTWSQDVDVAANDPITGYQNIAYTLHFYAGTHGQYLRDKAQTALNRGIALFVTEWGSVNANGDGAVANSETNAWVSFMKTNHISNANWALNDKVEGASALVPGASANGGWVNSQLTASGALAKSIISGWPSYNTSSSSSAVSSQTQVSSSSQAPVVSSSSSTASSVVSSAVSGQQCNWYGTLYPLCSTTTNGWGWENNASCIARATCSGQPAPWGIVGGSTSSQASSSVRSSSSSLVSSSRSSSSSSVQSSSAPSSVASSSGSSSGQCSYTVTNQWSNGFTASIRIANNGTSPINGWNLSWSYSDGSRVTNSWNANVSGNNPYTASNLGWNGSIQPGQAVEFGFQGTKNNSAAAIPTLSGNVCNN

CjXyl39A; Xyl39A = molecular target: T2, CjXyl39A; Xyl39A (Cellvibrio japonicus, UniProt B3PD50); test: fluorogenic activity assay on 4MU glycosides; assay type: biochemical; conditions: recombinant enzyme
T2 construct: recombinant, produced in E. coli (native in the pull-down)
T2 sequence (B3PD50 24-521): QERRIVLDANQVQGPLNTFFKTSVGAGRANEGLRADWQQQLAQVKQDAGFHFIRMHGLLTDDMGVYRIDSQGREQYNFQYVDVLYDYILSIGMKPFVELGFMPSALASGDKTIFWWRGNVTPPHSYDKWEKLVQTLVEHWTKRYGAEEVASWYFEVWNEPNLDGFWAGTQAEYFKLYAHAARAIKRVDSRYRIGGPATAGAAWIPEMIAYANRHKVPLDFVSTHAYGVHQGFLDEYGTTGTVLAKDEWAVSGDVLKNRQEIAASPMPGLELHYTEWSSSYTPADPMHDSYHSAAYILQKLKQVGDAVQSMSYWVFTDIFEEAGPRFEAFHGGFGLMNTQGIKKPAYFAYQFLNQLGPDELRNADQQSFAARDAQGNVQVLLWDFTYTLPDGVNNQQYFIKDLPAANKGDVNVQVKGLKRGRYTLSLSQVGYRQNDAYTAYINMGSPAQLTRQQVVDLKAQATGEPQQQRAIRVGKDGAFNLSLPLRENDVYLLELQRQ

## Cc1cc(=O)oc2cc(O[C@@H]3O[C@H](CO)[C@@H](O[C@@H]4O[C@H](CO[C@H]5OC[C@@H](O)[C@H](O)[C@H]5O)[C@@H](O[C@@H]5O[C@H](CO[C@H]6OC[C@@H](O)[C@H](O)[C@H]6O)[C@@H](O[C@@H]6O[C@H](CO[C@H]7OC[C@@H](O)[C@H](O)[C@H]7O)[C@@H](O)[C@H](O)[C@H]6O)[C@H](O)[C@H]5O)[C@H](O)[C@H]4O)[C@H](O)[C@H]3O)ccc12 [4MU-XXXG]
CjCel5B
  hydrolysis kinetics: Kinetics for the hydrolysis of 4MU-XXXG and commercially available 4MU-cellotetraose were measured

## Cc1cc(=O)oc2cc(O[C@@H]3OC[C@@H](O)[C@H](O)[C@H]3O)ccc12 [4-methylumbelliferyl (4MU) glycoside of β-D-xylose]
CjXyl39A; Xyl39A
  activity: showed specific recognition of β-D-xylose over other glycosides
